Measurements taken from ChEMBL document CHEMBL1201862, “PubChem BioAssay data set” (2004).
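Method: 48-hour compound exposure of cells in 96-well plates, five concentrations, linear interpolation of endpoints. GI50 is the concentration that inhibits growth by half.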 Calls of active or inactive are those of the source. No stated cut-off is given here; in the data, active = GI50 up to about 1.1 µM and inactive = higher.

Legend:
Test in all cases: NCI anticancer screen, dose series, 48 h
HL-60 = system: HL-60
NCI-H226 = system: NCI-H226
LOX IMVI = system: LOX IMVI
OVCAR-5 = system: OVCAR-5
HOP-92 = system: HOP-92
SF-295 = system: SF-295
HCT-116 = system: HCT-116
Malme-3M = system: Malme-3M
DU-145 = system: DU-145
U-251 = system: U-251
OVCAR-8 = system: OVCAR-8
SK-MEL-5 = system: SK-MEL-5
IGROV-1 = system: IGROV-1
CCRF-CEM = system: CCRF-CEM
M14 = system: M14
RPMI-8226 = system: RPMI-8226
MCF7 = system: MCF7
SW-620 = system: SW-620
A498 = system: A498
SK-OV-3 = system: SK-OV-3

Compound	GI50 (HL-60)	GI50 (NCI-H226)	GI50 (LOX IMVI)	GI50 (OVCAR-5)	GI50 (HOP-92)	GI50 (SF-295)	GI50 (HCT-116)	GI50 (Malme-3M)	GI50 (DU-145)	GI50 (U-251)	GI50 (OVCAR-8)	GI50 (SK-MEL-5)	GI50 (IGROV-1)	GI50 (CCRF-CEM)	GI50 (M14)	GI50 (RPMI-8226)	GI50 (MCF7)	GI50 (SW-620)	GI50 (A498)	GI50 (SK-OV-3)
Cn1c2cc(Cl)ccc2c2ccc3c(c21)C(=O)C=CC3=O	13.5 µM (inactive)	> 100 µM (inactive)	42.5 µM (inactive)	86.5 µM (inactive)	19 µM (inactive)	> 100 µM (inactive)	20.8 µM (inactive)	16.5 µM (inactive)	> 57 µM (inactive)	45.9 µM (inactive)	28.3 µM (inactive)	39.8 µM (inactive)	28.4 µM (inactive)	3.68 µM (inactive)	23.7 µM (inactive)	5.57 µM (inactive)	13.8 µM (inactive)	4.4 µM (inactive)	68.7 µM (inactive)	> 100 µM (inactive)
O=C1/C(=N\NC(=S)NC2CCCCC2)c2cc([N+](=O)[O-])ccc2N1CN1CCOCC1	3.32 µM (inactive)	19.1 µM (inactive)	5.04 µM (inactive)	11.3 µM (inactive)	1.96 µM (inactive)	3.67 µM (inactive)	3.57 µM (inactive)	11.4 µM (inactive)	11 µM (inactive)	4.52 µM (inactive)	3.9 µM (inactive)	3.16 µM (inactive)	1.51 µM (inactive)	0.382 µM (active)	9.53 µM (inactive)	11.3 µM (inactive)	4.06 µM (inactive)	6.25 µM (inactive)	4.8 µM (inactive)	13 µM (inactive)
O=C1c2c(nc3ccccc3c2-c2ccccc2)CN1Nc1ccccn1	97.9 µM (inactive)	61.1 µM (inactive)	> 76.9 µM (inactive)	> 100 µM (inactive)	38.4 µM (inactive)	60.1 µM (inactive)	79.8 µM (inactive)	78.3 µM (inactive)	67.9 µM (inactive)	66.7 µM (inactive)	43.5 µM (inactive)	74.5 µM (inactive)	81.8 µM (inactive)	79.1 µM (inactive)	> 100 µM (inactive)	76.9 µM (inactive)	> 70 µM (inactive)	> 100 µM (inactive)	5.32 µM (inactive)	98.2 µM (inactive)
C=C(C1=CC(=O)C(C)(C)O1)[C@@H]1CC=C([C@@H]2CC[C@H]3[C@@]2(C)CC[C@H]2C(C)(C)C(=O)[C@H](OC(=O)CC(C)(O)CC(=O)O)C[C@]32C)[C@H](O)O1 (stereo not given in full)	17.7 µM (inactive)	16.3 µM (inactive)	13.1 µM (inactive)	14.5 µM (inactive)	12.7 µM (inactive)	36.4 µM (inactive)	12.9 µM (inactive)	13.4 µM (inactive)	16.7 µM (inactive)	13.5 µM (inactive)	13.4 µM (inactive)	12.5 µM (inactive)	12.4 µM (inactive)	2.19 µM (inactive)	13.5 µM (inactive)	2.48 µM (inactive)	9.84 µM (inactive)	10.7 µM (inactive)	13 µM (inactive)	19.2 µM (inactive)
COC(=O)C1=C(C(=O)OC)C2(c3ccccc3)c3ccccc3C(=O)C1N2C1CCCCC1 (stereo not given)	3.1 µM (inactive)	50.4 µM (inactive)	22 µM (inactive)	54.8 µM (inactive)	> 100 µM (inactive)	25.5 µM (inactive)	14.7 µM (inactive)	58.2 µM (inactive)	> 100 µM (inactive)	49.9 µM (inactive)	60.4 µM (inactive)	26.2 µM (inactive)	49.4 µM (inactive)	26.7 µM (inactive)	43.3 µM (inactive)	6.9 µM (inactive)	37.7 µM (inactive)	41.3 µM (inactive)	> 66.1 µM (inactive)	> 96.2 µM (inactive)
O=C1/C(=C/c2ccccc2)CCC/C1=C\c1ccc(O)c(CN2CCCCC2)c1	3.49 µM (inactive)	6.41 µM (inactive)	1.99 µM (inactive)	15.3 µM (inactive)	4.55 µM (inactive)	5.35 µM (inactive)	1.57 µM (inactive)	11.4 µM (inactive)	2.62 µM (inactive)	3.17 µM (inactive)	3.78 µM (inactive)	2.92 µM (inactive)	3.72 µM (inactive)	3.3 µM (inactive)	3.26 µM (inactive)	3.27 µM (inactive)	4.32 µM (inactive)	2.39 µM (inactive)	5.37 µM (inactive)	9.1 µM (inactive)
O=C1/C(=C/c2cccc(O)c2)COc2ccccc21	4.5 µM (inactive)	11.4 µM (inactive)	1.95 µM (inactive)	8.67 µM (inactive)	16.9 µM (inactive)	15.7 µM (inactive)	1.75 µM (inactive)	8.89 µM (inactive)	14.2 µM (inactive)	1.87 µM (inactive)	7.38 µM (inactive)	9.2 µM (inactive)	7.96 µM (inactive)	1.59 µM (inactive)	4.27 µM (inactive)	1.15 µM (inactive)	3.63 µM (inactive)	2.19 µM (inactive)	20.3 µM (inactive)	21.3 µM (inactive)
CO/C(N)=C(C#N)/N=C/c1ccccc1	35.7 µM (inactive)	> 100 µM (inactive)	> 100 µM (inactive)	> 100 µM (inactive)	> 100 µM (inactive)	> 100 µM (inactive)	> 100 µM (inactive)	40.3 µM (inactive)	> 100 µM (inactive)	> 100 µM (inactive)	> 100 µM (inactive)	> 100 µM (inactive)	> 100 µM (inactive)	50 µM (inactive)	79.6 µM (inactive)	> 100 µM (inactive)	31.8 µM (inactive)	> 100 µM (inactive)	> 100 µM (inactive)	> 100 µM (inactive)
C=C1C(=O)OC2(C)CCC1CC1OC1(C)CCC=C(C)CCC2O (stereo not given)	21.7 µM (inactive)	> 100 µM (inactive)	> 100 µM (inactive)	> 100 µM (inactive)	> 100 µM (inactive)	> 100 µM (inactive)	> 100 µM (inactive)	> 100 µM (inactive)	55 µM (inactive)	> 100 µM (inactive)	> 100 µM (inactive)	> 100 µM (inactive)	> 100 µM (inactive)	7.08 µM (inactive)	> 100 µM (inactive)	53 µM (inactive)	> 100 µM (inactive)	45.4 µM (inactive)	35.9 µM (inactive)	> 100 µM (inactive)
Nc1nc(Cl)cc(NCC2(CO)CC(Cc3ccccc3)C2)n1 (stereo not given)	4.71 µM (inactive)	13.2 µM (inactive)	4.37 µM (inactive)	> 58.7 µM (inactive)	36.6 µM (inactive)	11.3 µM (inactive)	5.81 µM (inactive)	29.4 µM (inactive)	> 53.5 µM (inactive)	27.9 µM (inactive)	42.2 µM (inactive)	0.417 µM (active)	48.4 µM (inactive)	29.5 µM (inactive)	16.2 µM (inactive)	15 µM (inactive)	11.2 µM (inactive)	> 65.6 µM (inactive)	10.1 µM (inactive)	52 µM (inactive)
